# Residues, ends and D or L forms follow the SMILES beside them.
# What was measured:
# [1] = In vitro stability in mouse serum at 37°C (radiochemical purity); type: in vitro ADME; conditions: 50 μL probe + 100 μL serum, paper chromatography, mean ± SD
# Procedure: (§1) The purity of [^125I]I-pHLIP (Var7) was determined by paper chromatography. Normal saline was used as the developing agent, and Xinhua Grade 1 chromatography paper was used as the stationary phase. An appropriate amount of [^125I]I-pHLIP (Var7) eluent was aspirated by a capillary pipette and spotted at the origin of the chromatographic filter paper. After drying, the paper was placed vertically into a test tube containing the developing agent; the unfolded chromatographic filter paper was removed, air dried, and cut at intervals of 1 cm. The radioactivity count was measured segment by segment to calculate the radiochemical purity.
# (§2) The purified [^125I]I-pHLIP (Var7) was placed at 4°C, at room temperature (25°C) in PBS buffer, and at 37°C in mouse serum. The radiochemical purity at different time points was measured, and the stability was determined. • Two hundred microliters of purified [^125I]I-pHLIP (Var7) solution was placed at 4°C and at room temperature in PBS buffer. Radiochemical purity was determined immediately after purification and at 1, 2, 4, 8, and 24 h after purification • Fifty microliters of purified [^125I]I-pHLIP (Var7) solution was mixed with 100 μL of mouse serum and placed in a 37°C water bath. Radiochemical purity was determined immediately after mixing and at 1, 2, 4, 8, and 24 h after mixing
# [2] = In vitro stability in PBS buffer (radiochemical purity); type: physicochemical; conditions: 24 h, paper chromatography
# Procedure: as §1, §2
# [3] = tested on: MDA-MB-231 tumor-bearing mice; assay: Small-animal SPECT/CT imaging; type: in vivo, BALB/c nude mice; conditions: 1 and 2 h after injection; 3.7 MBq/200 μL tail vein; thyroid blocked with 0.1% KI
# Procedure: A mouse model bearing a human breast cancer cell line, MDA-MB-231, was established. MDA-MB-231 cells were cultured using the conventional method. Cells were collected at the logarithmic growth phase and washed once with PBS. The cells were then diluted to prepare suspensions at a concentration of approximately 1 × 10^6 cells/mL, which were temporarily stored in an ice box. Female 4-week-old BALB/c nude mice (16-20 g) were selected. MDA-MB-231 cells were inoculated subcutaneously using a disposable insulin syringe inserted into the right lateral thighs of the nude mice. The number of inoculated cells in each nude mouse was approximately 0.1 mL. The nude mice were raised under specific pathogen-free (SPF) conditions.
# Imaging was started when the diameter of the tumor grew to 0.8-1.0 cm. Three days before imaging, 3 nude mice began to drink 0.1% KI solution to block the thyroid gland until the end of the experiment. • The machine was calibrated daily • Anesthesia Induction. […] Imaging settings for the SPECT/CT and reconstruction are as follows: the time per frame was 10 min, voxel size was 0.8 mm, number of subsets was 32, and number of iterations was 15 • The injection time, injection dose, and residual dose were recorded according to the tables in the experiment
compound,measurement,setting,value
CC(C)C[C@H](NC(=O)[C@H](CCC(=O)O)NC(=O)[C@H](CC(C)C)NC(=O)[C@H](CC(C)C)NC(=O)[C@H](CC(C)C)NC(=O)[C@@H](NC(=O)[C@H](CCC(=O)O)NC(=O)[C@@H](NC(=O)[C@@H]1CCCN1C(=O)[C@H](Cc1ccccc1)NC(=O)[C@H](CC(C)C)NC(=O)[C@H](Cc1c[nH]c2ccccc12)NC(=O)[C@H](CCC(=O)O)NC(=O)[C@H](CC(C)C)NC(=O)[C@H](Cc1ccc(O)c(I)c1)NC(=O)[C@H](CCCNC(=N)N)NC(=O)[C@H](C)NC(=O)[C@H](Cc1c[nH]c2ccccc12)NC(=O)[C@@H]1CCCN1C(=O)[C@H](CC(N)=O)NC(=O)[C@H](CCC(N)=O)NC(=O)[C@H](CCC(=O)O)NC(=O)[C@H](CCC(=O)O)NC(=O)[C@H](C)N)[C@@H](C)O)[C@@H](C)O)C(N)=O [[^125I]I-pHLIP (Var7)] (HELM PEPTIDE1{A.E.E.Q.N.P.W.A.R.[O=C([C@H](Cc1ccc(O)c(I)c1)N[*:1])[*:2]].L.E.W.L.F.P.T.E.T.L.L.L.E.L.[am]}$$$$V2.0),probe stability in serum (radiochemical purity),[1]; 1 h,97.8 ± 1.9%
same,probe stability in serum (radiochemical purity),[1]; 2 h,96.8 ± 1.0%
same,probe stability in serum (radiochemical purity),[1]; 4 h,94.5 ± 1.1%
same,probe stability in serum (radiochemical purity),[1]; 8 h,91.3 ± 2.6%
same,stability (radiochemical purity),[2]; 4°C,higher than 98%
same,stability (radiochemical purity),[2]; room temperature (25°C),higher than 98%
same,tumor visibility on SPECT/CT,[3],clearly visible tumors
